Six molecules from ChEMBL document CHEMBL1125127 (J Med Chem, 1990) can be followed below.

The test system of one experiment is Canis familiaris. The experiment can be described thus: Percent change in blood pressure (BP) from control at active dose 30 mg/kg administered intraperitoneally in anesthetized dogs. It is filed as functional, Canis lupus familiaris. Particulars: route intraperitoneal.
On to `CS(=O)(=O)Nc1ccc(OCC(O)CNCCNC(=O)c2ccc(-n3ccnc3)cc2)cc1` (stereo not drawn), for which the Change was 30%.

As to `CS(=O)(=O)Nc1ccc(C(=O)NC2CCCCC2NCC(O)COc2ccccc2)cc1` (stereo not drawn), the Change stood at 17%.

For the next experiment, the system named is Canis familiaris. Description: Percent change in heart rate (HR) from control at active dose 0.3-10 mg/kg administered intraperitoneally in anesthetized dogs.
Conditions: not given
It is filed as functional, Canis lupus familiaris.
In the case of `CC(C)NCC(O)c1ccc(NS(C)(=O)=O)cc1` (stereo not drawn) [SOTALOL], the Change was -6%.

In a further experiment the test system is Canis familiaris. The experiment can be described thus: Percent change in blood pressure (BP) from control at active dose 10-30 mg/kg administered intraperitoneally in anesthetized dogs.
Conditions: not given
Format: functional, Canis lupus familiaris.
Turning to `COCCc1ccc(OCC(O)CN2CCN(c3ccc(NS(C)(=O)=O)cc3)CC2)cc1` (stereo not drawn), the Change was determined as 9%.

Regarding `CC(C)NCC(O)c1ccc(NS(C)(=O)=O)cc1` (stereo not drawn) [SOTALOL], the Change is 9%.

The test system of a further experiment is Canis familiaris. Description: Percent change in heart rate (HR) from control at active dose 1.0-10 mg/kg administered intraperitoneally in anesthetized dogs. It is filed as functional, Canis lupus familiaris.
Conditions: not given
In the case of `Cc1cccc(OCC(O)CN2CCN(c3ccc(NS(C)(=O)=O)cc3)CC2)c1` (stereo not drawn), the Change worked out at 18%.

For the next experiment, the system named is Canis familiaris. The experiment can be described thus: Percent change in FRP from control at active dose 10 mg/kg administered intraperitoneally in anesthetized dogs. It is filed as functional, Canis lupus familiaris. Particulars: route intraperitoneal.
As for `CS(=O)(=O)Nc1ccc(N2CCN(CC(O)COc3cccc4c3CCCC4=O)CC2)cc1` (stereo not drawn), the Change was 12%.

For `Cc1cccc(OCC(O)CN2CCN(c3ccc(NS(C)(=O)=O)cc3)CC2)c1` (stereo not drawn), the Change is given as 17%.

System in a further experiment: not listed separately
The experiment can be described thus: Ratio of number of active animals to number of treated at dose 3.0 mg/kg administered intraperitoneally in Epinephrine-induced model in anesthetized dogs; 6/6. To be noted: route intraperitoneal.
Consider `CC(C)NCC(O)c1ccc(NS(C)(=O)=O)cc1` (stereo not drawn) [SOTALOL], for which the “No. of active/no. of tested” value stood at 6.

A further experiment deals with Canis familiaris. Description: Percent change in heart rate (HR) from control at active dose 10-30 mg/kg administered intraperitoneally. Format: functional, Canis lupus familiaris.
Conditions: not given
As to `CC(C)NCC(O)c1ccc(NS(C)(=O)=O)cc1` (stereo not drawn) [SOTALOL], the Change is -10%.

System in the next experiment: not listed separately
The experiment can be described thus: Ratio of number of active animals to number of treated at dose 10 mg/kg administered intraperitoneally in anesthetized dogs; No of animals tested=2. It is filed as functional. To be noted: route intraperitoneal.
Regarding `CS(=O)(=O)Nc1ccc(N2CCN(CC(O)COc3cccc4c3CCCC4=O)CC2)cc1` (stereo not drawn), the Ratio was 1.

For a further experiment, the system named is Canis familiaris. Description: Percent change in heart rate (HR) from control at active dose 10 mg/kg administered intraduodenally. Particulars: route intraduodenal.
In the case of `CS(=O)(=O)Nc1ccc(N2CCN(CC(O)COc3cccc4c3CCCC4=O)CC2)cc1` (stereo not drawn), the Change is reported as -1%.

Turning to `Cc1cccc(OCC(O)CN2CCN(c3ccc(NS(C)(=O)=O)cc3)CC2)c1` (stereo not drawn), the Change is on record as -21%.

Another experiment deals with Beta-2 adrenergic receptor (Canis lupus familiaris, UniProt P54833).
Sequence of Beta-2 adrenergic receptor (P54833 whole entry): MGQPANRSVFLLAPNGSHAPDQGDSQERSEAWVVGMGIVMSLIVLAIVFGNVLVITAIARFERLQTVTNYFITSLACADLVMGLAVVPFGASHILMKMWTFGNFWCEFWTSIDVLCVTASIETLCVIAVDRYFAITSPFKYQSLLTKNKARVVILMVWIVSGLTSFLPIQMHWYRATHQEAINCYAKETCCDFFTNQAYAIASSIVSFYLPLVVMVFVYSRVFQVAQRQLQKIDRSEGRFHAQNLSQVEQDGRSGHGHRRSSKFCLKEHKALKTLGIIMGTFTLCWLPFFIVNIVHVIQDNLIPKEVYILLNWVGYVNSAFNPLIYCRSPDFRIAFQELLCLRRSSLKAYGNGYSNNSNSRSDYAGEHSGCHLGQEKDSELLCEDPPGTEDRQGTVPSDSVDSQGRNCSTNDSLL
Experiment: not given
Conditions: not given
For the molecule `Cc1cccc(OCC(O)CN2CCN(c3ccc(NS(C)(=O)=O)cc3)CC2)c1` (stereo not drawn), inhibition was half-maximal at 49.3 µM (IC50). In other words, the double-digit micromolar range.

The next experiment relates to Canis familiaris. The experiment can be described thus: Percent change in blood pressure (BP) from control at active dose 0.3-10 mg/kg administered intraperitoneally in anesthetized dogs. It is filed as functional, Canis lupus familiaris.
Conditions: not given
On to `CC(C)NCC(O)c1ccc(NS(C)(=O)=O)cc1` (stereo not drawn) [SOTALOL], for which the Change is recorded as 8%.

The subject of another experiment is Canis familiaris. Description: Percent change in heart rate (HR) from control at active dose 30 mg/kg administered intraduodenally. Particulars: route intraduodenal.
On to `CS(=O)(=O)Nc1ccc(OCC(O)CNCCNC(=O)c2ccc(-n3ccnc3)cc2)cc1` (stereo not drawn), for which the Change is recorded as -18%.

In the case of `CS(=O)(=O)Nc1ccc(C(=O)NC2CCCCC2NCC(O)COc2ccccc2)cc1` (stereo not drawn), the Change is -19%.

A further experiment relates to Canis familiaris. The experiment can be described thus: Percent change in FRP from control at active dose 1.0-10 mg/kg administered intraperitoneally. Format: functional, Canis lupus familiaris.
Conditions: not given
Consider `Cc1cccc(OCC(O)CN2CCN(c3ccc(NS(C)(=O)=O)cc3)CC2)c1` (stereo not drawn), for which the Change is on record as 13%.

For the next experiment, the system named is Canis familiaris. Description: Maximum change in […] from control value in anesthetized dogs; 10 uM.
Conditions: not given
It is filed as functional, Canis lupus familiaris.
The molecule `CS(=O)(=O)Nc1ccc(C(=O)NC2CCCCC2NCC(O)COc2ccccc2)cc1` (stereo not drawn) gave a Max delta of 45%.

`COCCc1ccc(OCC(O)CN2CCN(c3ccc(NS(C)(=O)=O)cc3)CC2)cc1` (stereo not drawn) had a Max delta of 76%.

`Cc1cccc(OCC(O)CN2CCN(c3ccc(NS(C)(=O)=O)cc3)CC2)c1` (stereo not drawn) returned a Max delta of 55%.

Another experiment relates to Canis familiaris. Description: Percent change in heart rate (HR) from control at active dose 10-30 mg/kg administered intraduodenally.
Conditions: not given
Regarding `COCCc1ccc(OCC(O)CN2CCN(c3ccc(NS(C)(=O)=O)cc3)CC2)cc1` (stereo not drawn), the Change is -12%.

In a further experiment the target is Beta adrenergic receptor (Canis familiaris).
Experiment: not given
Conditions: not given
Turning to `CS(=O)(=O)Nc1ccc(N2CCN(CC(O)COc3cccc4c3CCCC4=O)CC2)cc1` (stereo not drawn), the concentration for half-maximal inhibition (IC50) (in general, the concentration that inhibits the measured activity by half) worked out at 8.4 µM.

In turn, `CS(=O)(=O)Nc1ccc(OCC(O)CNCCNC(=O)c2ccc(-n3ccnc3)cc2)cc1` (stereo not drawn) came in with a half-maximal inhibitory concentration (IC50) of 227 µM. This IC50 lies about 27-fold higher than the previous one.

`CS(=O)(=O)Nc1ccc(C(=O)NC2CCCCC2NCC(O)COc2ccccc2)cc1` (stereo not drawn) displayed a 50% inhibitory concentration (IC50) of 192 µM.

`COCCc1ccc(OCC(O)CN2CCN(c3ccc(NS(C)(=O)=O)cc3)CC2)cc1` (stereo not drawn) gave an IC50 of 109 µM.

Another experiment relates to Canis familiaris. Description: Percent change in blood pressure (BP) from control at active dose 10 mg/kg administered intraperitoneally in anesthetized dogs. It is filed as functional, Canis lupus familiaris. To be noted: route intraperitoneal.
In the case of `CS(=O)(=O)Nc1ccc(N2CCN(CC(O)COc3cccc4c3CCCC4=O)CC2)cc1` (stereo not drawn), the Change is 18%.

Take `Cc1cccc(OCC(O)CN2CCN(c3ccc(NS(C)(=O)=O)cc3)CC2)c1` (stereo not drawn): the Change was determined as 13%.

Another experiment concerns Canis familiaris. Description: Concentration that causes a 20% increase in APD95 (action potential duration at 95% repolarization) from control value in anesthetized dogs. Format: functional, Canis lupus familiaris.
Conditions: not given
In the case of `CS(=O)(=O)Nc1ccc(N2CCN(CC(O)COc3cccc4c3CCCC4=O)CC2)cc1` (stereo not drawn), the C20 is 1.9 µM.

Turning to `CS(=O)(=O)Nc1ccc(OCC(O)CNCCNC(=O)c2ccc(-n3ccnc3)cc2)cc1` (stereo not drawn), the C20 is 5.8 µM.

In turn, `CS(=O)(=O)Nc1ccc(C(=O)NC2CCCCC2NCC(O)COc2ccccc2)cc1` (stereo not drawn) yielded a C20 of 5.3 µM.

Regarding `COCCc1ccc(OCC(O)CN2CCN(c3ccc(NS(C)(=O)=O)cc3)CC2)cc1` (stereo not drawn), the C20 was 3.2 µM.

In turn, `CC(C)NCC(O)c1ccc(NS(C)(=O)=O)cc1` (stereo not drawn) [SOTALOL] registered a C20 of 14.4 µM.

On to `Cc1cccc(OCC(O)CN2CCN(c3ccc(NS(C)(=O)=O)cc3)CC2)c1` (stereo not drawn), for which the C20 is less than 1 µM.

System in a further experiment: not listed separately
The experiment can be described thus: Ratio of number of active animals to number of treated at dose 1.0 mg/kg administered intraperitoneally in Epinephrine-induced model in anesthetized dogs; 4/4. Format: functional. Particulars: route intraperitoneal.
As to `CC(C)NCC(O)c1ccc(NS(C)(=O)=O)cc1` (stereo not drawn) [SOTALOL], the “No. of active/no. of tested” value is listed as 4.

System in a further experiment: not listed separately
The experiment can be described thus: Ratio of number of active animals to number of treated at dose 1.0-10 mg/kg administered intraperitoneally in PES model in anesthetized dogs; 3/5. Format: functional.
Conditions: not given
Regarding `Cc1cccc(OCC(O)CN2CCN(c3ccc(NS(C)(=O)=O)cc3)CC2)c1` (stereo not drawn), the No. effective came out at 3.

In another experiment the test system is Canis familiaris. The experiment can be described thus: Concentration at which maximum change in […] was observed from control value in anesthetized dogs; The maximum observed change APD95 from control value and concentration at 10 uM when this occurred.
Conditions: not given
It is filed as functional, Canis lupus familiaris.
As for `CS(=O)(=O)Nc1ccc(N2CCN(CC(O)COc3cccc4c3CCCC4=O)CC2)cc1` (stereo not drawn), the Max delta stood at 48%.

System in a further experiment: not listed separately
The experiment can be described thus: Ratio of number of active animals to number of treated at dose 30 mg/kg administered intraperitoneally in anesthetized dogs; No of animals tested=2. Format: functional. Particulars: route intraperitoneal.
On to `CS(=O)(=O)Nc1ccc(OCC(O)CNCCNC(=O)c2ccc(-n3ccnc3)cc2)cc1` (stereo not drawn), for which the Ratio turned out to be 1.

Regarding `CS(=O)(=O)Nc1ccc(C(=O)NC2CCCCC2NCC(O)COc2ccccc2)cc1` (stereo not drawn), the Ratio stood at 2.

The next experiment has as its system Canis familiaris. Description: Percent change in FRP from control at active dose 0.3-10 mg/kg administered intraperitoneally. It is filed as functional, Canis lupus familiaris.
Conditions: not given
Turning to `CC(C)NCC(O)c1ccc(NS(C)(=O)=O)cc1` (stereo not drawn) [SOTALOL], the Change came to 14%.

The next experiment concerns Canis familiaris. The experiment can be described thus: Percent change in FRP from control at active dose 30 mg/kg administered intraperitoneally in anesthetized dogs. Format: functional, Canis lupus familiaris. To be noted: route intraperitoneal.
As for `CS(=O)(=O)Nc1ccc(OCC(O)CNCCNC(=O)c2ccc(-n3ccnc3)cc2)cc1` (stereo not drawn), the Change was 14%.

As to `CS(=O)(=O)Nc1ccc(C(=O)NC2CCCCC2NCC(O)COc2ccccc2)cc1` (stereo not drawn), the Change is 15%.

In the next experiment the test system is Canis familiaris. Description: Percent change in blood pressure (BP) from control at active dose 1.0-10 mg/kg administered intraperitoneally in anesthetized dogs. Format: functional, Canis lupus familiaris.
Conditions: not given
In the case of `Cc1cccc(OCC(O)CN2CCN(c3ccc(NS(C)(=O)=O)cc3)CC2)c1` (stereo not drawn), the Change is recorded as -1%.

System in the next experiment: not listed separately
Description: Ratio of number of active animals to number of treated at dose 10-30 mg/kg administered intraperitoneally in anesthetized dogs; No of animals tested=3. It is filed as functional.
Conditions: not given
As to `COCCc1ccc(OCC(O)CN2CCN(c3ccc(NS(C)(=O)=O)cc3)CC2)cc1` (stereo not drawn), the No. effective was determined as 3.

The test system of another experiment is Canis familiaris. Description: Percent change in FRP from control at active dose 10-30 mg/kg administered intraperitoneally in anesthetized dogs. It is filed as functional, Canis lupus familiaris.
Conditions: not given
`COCCc1ccc(OCC(O)CN2CCN(c3ccc(NS(C)(=O)=O)cc3)CC2)cc1` (stereo not drawn): the Change is listed as 15%.

As for `CC(C)NCC(O)c1ccc(NS(C)(=O)=O)cc1` (stereo not drawn) [SOTALOL], the Change is 17%.

For a further experiment, the system named is Canis familiaris. Description: Concentration at which maximum change in […] was observed from control value in anesthetized dogs; The maximum observed change APD95 from control value and concentration at 100 uM when this occurred. Format: functional, Canis lupus familiaris.
Conditions: not given
Regarding `CS(=O)(=O)Nc1ccc(OCC(O)CNCCNC(=O)c2ccc(-n3ccnc3)cc2)cc1` (stereo not drawn), the Max delta is 58%.

In the case of `CC(C)NCC(O)c1ccc(NS(C)(=O)=O)cc1` (stereo not drawn) [SOTALOL], the Max delta is listed as 48%.
